Reference: patent publication US20240208953A1, “"Cyclopenta[c]pyrrol Negative Allosteric Modulators of NR2B"” (Novartis AG, priority 2021, published 2024)

Experiments:
P-glycoprotein (P-gp) = P-glycoprotein (P-gp) (Homo sapiens (Human), UniProt P08183); test: MDCK-MDR1 permeability / efflux assay; assay type: in vitro ADME; conditions: for efflux ratio at 120 min, 10 μM: dog, MDCK-MDR1, pH 7.4, efflux ratio, read-out: MDCK-MDR1 ER
Description: Example 4. Experimental Measurement of Efflux with MDCK-MDR1 Protocol
Cell Culture. MDCK-MDR1 cells were cultured at 37° C. under a 5% CO2 atmosphere, at 95% relative humidity in DMEM containing 10% FBS, penicillin-streptomycin (100 μg/mL), and 2 mM Ala-Gln. Cells were passaged every 3-4 days. For assay purposes, cells were seeded at a density of approximately 265,000 cells/cm^2 of a 96-well Transwell plate (Corning Life Sciences, Acton, MA) and cultured in the same media noted above for a period of 4 days.
Assay. The determination of the apparent permeability (Papp) was performed in both the A→B (apical to basal) and B→A (basal to apical) directions where each compound was assayed in triplicate. The zwitterion bestatin, a poorly permeably compound, was used as marker of monolayer integrity. To initiate the assay, media was aspirated, and the cells and basal chambers were washed three times with Hank's Balanced Salt Solution (HBSS) containing 10 mM HEPES (pH 7.4). Compound test solutions were prepared in triplicate in HBSS containing 10 mM HEPES (pH 7.4) and 0.02% bovine serum albumin (BSA) to a final concentration of 10 μM and centrifuged for 2 min at 4000×g, then applied to the donor compartment at time zero. Additionally, at time zero, a 37° C. solution without test articles (HBSS+10 mM HEPES (pH 7.4) plus 0.02% BSA) was added to the receiver chamber of the Transwell plate. A time zero sample of the donor solution was also sampled for further analysis. The assay was conducted for a period of 120 min at 37° C. without shaking. At the time of assay termination, samples were taken from each donor compartment, and each acceptor compartment of the Transwell plate. To each of the 0 and 120 min samples was added an internal standard solution containing glyburide in water:acetonitrile, 50:50 (v:v). Concentration curves were prepared using a Labcyte Echo in the same matrix noted above. Samples and concentration curve samples were centrifuged for 10 min at 4000×g and subsequently analyzed by mass spectroscopy.
Mass Spectroscopy. Assay samples were loaded onto a RapidFire C4 cartridge by means of a RapidFire autosampler (Agilent, Santa Clara, CA). […] Mass spectroscopy was performed using an AB Sciex AP15500 (Sciex, Frammingham, MA) equipped with a turbo ion spray source. The analyte concentration was calculated from the chromatographic peak area ratio of analyte to internal standard (glibenclamide, m/z 494→169), using Multiquant software V3.0 (Sciex, Framingham, MA).
Calculations. Papp values were determined as
Percent recovery values were determined as:
where VA is the volume of the acceptor (mL), S is the surface area of the membrane, D0 is the donor solution concentration at t=0, D120 is the donor solution concentration at t=120, A120 is the acceptor solution concentration at t=120, and t=time (seconds).
The suitability of a compound for oral dosing and/or for use as a CNS therapeutic is usually conducted by MDCK-MDR1 permeability assay to investigate its drug efflux potential mediated by P-glycoprotein (P-gp). MDCK-MDR1 permeability has been used as a predictor of blood brain barrier permeability in terms of efflux ratio (ER).

NR2B = NR2B (Rattus norvegicus (Rat), UniProt Q00960); test: NR2B rat cortical neuron calcium influx assay; assay type: cell-based; conditions: rat cortical neurons, glutamate and glycine stimulated calcium influx
Chain of NR2B (Q00960 27-1482, other chains not shown): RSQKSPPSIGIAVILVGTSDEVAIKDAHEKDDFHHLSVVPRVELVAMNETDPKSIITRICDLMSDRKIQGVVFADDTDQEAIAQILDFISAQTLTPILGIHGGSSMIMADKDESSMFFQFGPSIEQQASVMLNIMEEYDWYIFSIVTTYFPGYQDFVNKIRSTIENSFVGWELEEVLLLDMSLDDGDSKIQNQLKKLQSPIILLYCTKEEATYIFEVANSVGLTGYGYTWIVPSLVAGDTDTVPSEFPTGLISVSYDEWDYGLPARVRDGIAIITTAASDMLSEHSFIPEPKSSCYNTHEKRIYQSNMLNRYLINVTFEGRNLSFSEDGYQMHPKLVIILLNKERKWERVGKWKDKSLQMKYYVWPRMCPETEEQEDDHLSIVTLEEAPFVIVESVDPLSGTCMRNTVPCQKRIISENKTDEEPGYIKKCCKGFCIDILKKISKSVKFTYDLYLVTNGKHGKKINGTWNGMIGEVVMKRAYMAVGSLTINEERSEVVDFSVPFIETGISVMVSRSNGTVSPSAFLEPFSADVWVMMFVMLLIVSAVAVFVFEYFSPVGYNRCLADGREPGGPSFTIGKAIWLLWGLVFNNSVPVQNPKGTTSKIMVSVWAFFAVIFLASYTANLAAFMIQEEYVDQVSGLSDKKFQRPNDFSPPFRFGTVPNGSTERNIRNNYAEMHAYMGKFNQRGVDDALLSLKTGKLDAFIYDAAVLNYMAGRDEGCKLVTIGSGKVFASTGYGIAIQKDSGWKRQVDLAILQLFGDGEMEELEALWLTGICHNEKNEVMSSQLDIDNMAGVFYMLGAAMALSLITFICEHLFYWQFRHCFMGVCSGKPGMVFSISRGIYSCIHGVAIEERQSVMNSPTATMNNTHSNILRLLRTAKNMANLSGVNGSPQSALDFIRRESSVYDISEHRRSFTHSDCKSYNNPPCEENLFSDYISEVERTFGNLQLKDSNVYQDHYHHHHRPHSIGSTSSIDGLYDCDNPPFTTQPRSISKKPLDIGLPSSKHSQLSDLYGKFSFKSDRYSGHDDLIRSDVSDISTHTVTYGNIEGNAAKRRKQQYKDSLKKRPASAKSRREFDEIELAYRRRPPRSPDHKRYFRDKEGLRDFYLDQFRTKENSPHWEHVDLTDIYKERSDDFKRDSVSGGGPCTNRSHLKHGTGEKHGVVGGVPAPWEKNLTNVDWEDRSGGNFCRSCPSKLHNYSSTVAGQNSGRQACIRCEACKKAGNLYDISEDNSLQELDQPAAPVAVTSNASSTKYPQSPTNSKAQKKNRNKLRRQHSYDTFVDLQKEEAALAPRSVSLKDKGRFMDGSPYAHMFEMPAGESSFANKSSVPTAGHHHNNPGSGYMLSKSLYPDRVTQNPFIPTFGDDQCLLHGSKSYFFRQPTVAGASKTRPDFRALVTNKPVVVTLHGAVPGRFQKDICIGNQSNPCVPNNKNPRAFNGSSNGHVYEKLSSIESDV
From the text: Example 1: NR2B Rat Cortical Neuron Calcium Influx Assay Protocol
Embryonic day 18 timed pregnant Sprague Dawley rats were euthanized according to Institutional Animal Care and Use Committee (IACUC) protocol. After cutting medially through the skin and exposing the uterus and embryos, fetuses were removed and placed in cold Hibernate medium. Each embryo's brain was extracted and cerebral cortices were isolated by removing the midbrain and meninges. The dissected cortices were then dissociated into the neurons using papain dissociation system (Worthington Biochemical Corporation) according the manufacturer's protocol.
Dissociated neurons were counted and plated into 384-well poly-D-lysine coated plates (Corning® BioCoat™) at a density of 20,000 cells/well in 30 μL of Neurobasal/B27 complete medium. Neurons were cultured at 37° C. for 2 days. On the assay day, medium was removed and cells were incubated with 20 μL/well of calcium dye (Calcium 6 Assay Kit, Molecular Devices) suspended in HBSS with 1.8 mM Ca^2+ (Ca-HBSS) according to the manufacturer's instruction.
Compounds of interest from 10 mM stock were serially diluted into 3× of desired concentrations in 1.8 mM Ca-HBSS, and 10 μL were added to the wells. Compound and the neurons were incubated at 37° C. for 2 hours in the dark.
On FDSS7000EX (Hamamatsu Photonics), a fluorescence measuring instrument, 10 μL of 4× ligand solution containing glutamate and glycine made in 1.8 mM Ca^2+-HBSS were added to each well. The fluorescent signals were collected before and after the addition of ligands for a total of 2 minutes. The data were converted to a ratio of the peak fluorescence to the fluorescence at the beginning of the measurement.
Each data point was measured in duplicates. Dose response curves were used to identify IC50 and maximal inhibition values. IC50 represents the concentration in μM of compound at which there is a half-maximal compound effect. Maximal inhibition of a compound is expressed as a percent of the highest inhibition of activity over a no compound control.

Chain of P-glycoprotein (P-gp) (P08183 whole entry): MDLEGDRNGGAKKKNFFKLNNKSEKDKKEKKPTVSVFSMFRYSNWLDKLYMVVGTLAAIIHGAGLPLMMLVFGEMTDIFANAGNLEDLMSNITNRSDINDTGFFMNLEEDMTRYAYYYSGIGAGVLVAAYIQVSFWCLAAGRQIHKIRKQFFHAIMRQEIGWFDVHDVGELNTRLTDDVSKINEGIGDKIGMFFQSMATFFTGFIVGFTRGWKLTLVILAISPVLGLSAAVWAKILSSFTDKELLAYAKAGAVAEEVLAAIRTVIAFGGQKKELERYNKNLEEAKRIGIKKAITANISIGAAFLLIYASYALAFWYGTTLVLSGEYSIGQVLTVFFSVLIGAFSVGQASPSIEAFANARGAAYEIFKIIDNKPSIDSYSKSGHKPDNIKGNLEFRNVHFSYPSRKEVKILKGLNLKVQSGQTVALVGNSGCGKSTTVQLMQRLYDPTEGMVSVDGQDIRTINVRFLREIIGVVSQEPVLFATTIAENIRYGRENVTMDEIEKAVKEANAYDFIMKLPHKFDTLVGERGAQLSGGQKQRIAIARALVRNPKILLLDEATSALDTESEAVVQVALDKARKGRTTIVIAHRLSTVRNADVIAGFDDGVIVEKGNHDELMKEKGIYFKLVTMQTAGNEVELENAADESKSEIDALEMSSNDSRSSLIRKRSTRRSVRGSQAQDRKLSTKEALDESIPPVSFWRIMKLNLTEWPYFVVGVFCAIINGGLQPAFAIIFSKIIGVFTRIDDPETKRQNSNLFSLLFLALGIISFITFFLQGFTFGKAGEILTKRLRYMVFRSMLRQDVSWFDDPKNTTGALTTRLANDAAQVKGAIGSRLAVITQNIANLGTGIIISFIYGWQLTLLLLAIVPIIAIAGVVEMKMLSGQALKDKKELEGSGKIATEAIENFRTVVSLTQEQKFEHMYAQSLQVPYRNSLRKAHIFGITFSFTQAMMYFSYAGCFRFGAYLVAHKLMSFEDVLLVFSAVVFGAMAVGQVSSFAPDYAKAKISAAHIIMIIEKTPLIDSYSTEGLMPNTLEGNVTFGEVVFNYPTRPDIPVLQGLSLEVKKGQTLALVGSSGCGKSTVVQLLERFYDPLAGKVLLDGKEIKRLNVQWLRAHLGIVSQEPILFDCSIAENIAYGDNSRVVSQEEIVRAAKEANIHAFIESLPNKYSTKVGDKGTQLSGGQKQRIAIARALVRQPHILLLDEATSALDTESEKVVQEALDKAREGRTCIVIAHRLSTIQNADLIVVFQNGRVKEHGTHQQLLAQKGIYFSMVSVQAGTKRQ

Compound	efflux ratio at 120 min, 10 μM (P-glycoprotein (P-gp))	IC50 (NR2B) [nM]	MDCK-MDR1 ER (P-glycoprotein (P-gp); efflux ratio, 10 μM, 120 min)
O=C1CCc2cc([C@@H](O)CN3C[C@H]4C[C@H](Oc5ccccc5F)C[C@@]4(O)C3)ccc2N1 [Example 5A, 6-((R)-2-((3aS,5S,6aR)-5-(2-fluorophenoxy)-3a-hydroxyhexahydrocyclopenta[c]pyrrol-2(1H)-yl)-1-hydroxyethyl)-3,4-dihydroquinolin-2(1H)-one]	1.05	38	–
O=C1CCc2cc([C@@H](O)CN3C[C@@H]4C[C@@H](Oc5cc(F)ccc5F)C[C@]4(O)C3)ccc2N1 (single isomer, unassigned) [Example 26C]	3.27	1.3	–
O=C1COc2cc([C@H](O)CN3C[C@H]4C[C@H](Oc5ccccc5)C[C@@]4(O)C3)cc(F)c2N1 (single isomer, unassigned) [Example 13B]	1.11	57	–
O=C1COc2cc([C@@H](O)CN3C[C@H]4C[C@H](Oc5ccccc5)C[C@@]4(O)C3)cc(F)c2N1 (single isomer, unassigned) [Example 13A]	1.22	86	–
O=C1CCc2cc([C@@H](O)CN3C[C@H]4C[C@H](Oc5ccccc5F)[C@H](O)[C@@]4(O)C3)cc(F)c2N1 (single isomer, unassigned) [Example 29A]	3.23	130	–
O=C1Nc2ccc([C@@H](O)CN3C[C@H]4C[C@H](Oc5ccccc5F)C[C@@]4(O)C3)cc2CO1 (single isomer, unassigned) [Example 41A]	1.86	0.3	–
O=C1CCc2cc([C@H](O)CN3C[C@@H]4C[C@@H](Oc5ccccc5F)C[C@]4(O)C3)cc(F)c2N1 (single isomer, unassigned) [Example 6D]	1.29	2.4	–
O=C1CCCc2cc([C@@H](O)CN3C[C@H]4C[C@H](Oc5ccccc5F)C[C@@]4(O)C3)ccc2N1 (single isomer, unassigned) [Example 43A]	2.16	0.034	–
9-fluoro-7-((R)-1-hydroxy-2-((3aS,5S,6aR)-3a-hydroxy-5-phenoxyhexahydrocyclopenta[c]pyrrol-2(1H)-yl)ethyl)-1,5-dihydrobenzo[e][1,4]oxazepin-2(3H)-one [Example 32A]	–	960	0.83
O=C1CCCc2cc([C@@H](O)CN3C[C@H]4C[C@H](Oc5ccccc5)C[C@@]4(O)C3)ccc2N1 (single isomer, unassigned) [Example 7A]	2.73	14	–
O=c1[nH]c2c(F)cc([C@H](O)CN3C[C@H]4C[C@H](Oc5ccccc5)C[C@@]4(O)C3)cc2cc1F (single isomer, unassigned) [Example 20B]	3.32	0.33	–
O=C1CCc2cc([C@H](O)CN3C[C@@H]4C[C@@H](Oc5cccc(F)c5F)C[C@]4(O)C3)ccc2N1 (single isomer, unassigned) [Example 24D]	2.64	0.056	–
CC1(C)Cc2cc([C@@H](O)CN3C[C@H]4C[C@H](Oc5ccccc5)C[C@@]4(O)C3)ccc2NC1=O (single isomer, unassigned) [Example 11A]	1.74	1.9	–
O=C1CCc2c(ccc([C@H](O)CN3C[C@H]4C[C@H](Oc5ccccc5)C[C@@]4(O)C3)c2F)N1 (single isomer, unassigned) [Example 9B]	1.4	4.1	–
O=C1CCc2cc([C@@H](O)CN3C[C@@H]4C[C@@H](Oc5ccc(F)cc5F)C[C@]4(O)C3)ccc2N1 (single isomer, unassigned) [Example 25C]	2.74	0.24	–
O=C1CCc2cc([C@H](O)CN3C[C@@H]4C[C@@H](Oc5cc(F)ccc5F)C[C@]4(O)C3)ccc2N1 (single isomer, unassigned) [Example 26D]	2.52	1.9	–
O[C@@H](CN1C[C@H]2C[C@H](Oc3ccccc3F)[C@H](O)[C@@]2(O)C1)c1cnc2[nH]ccc2c1 (single isomer, unassigned) [Example 44A]	6.09	170	–
O=c1[nH]c2ccc([C@H](O)CN3C[C@H]4C[C@H](Oc5ccccc5)C[C@@]4(O)C3)cc2s1 (single isomer, unassigned) [Example 17B]	2.06	0.049	–
O=C1CCc2cc([C@@H](O)CN3C[C@@H]4C[C@@H](Oc5c(F)cccc5F)C[C@]4(O)C3)ccc2N1 (single isomer, unassigned) [Example 27C]	1.52	1.7	–
O=C1Nc2c(F)cc([C@@H](O)CN3C[C@H]4C[C@H](Oc5ccccc5F)C[C@@]4(O)C3)cc2CO1 (single isomer, unassigned) [Example 35A]	1	1.2	–
O=C1Cc2cc([C@@H](O)CN3C[C@H]4C[C@H](Oc5ccccc5)C[C@@]4(O)C3)ccc2N1 (single isomer, unassigned) [Example 2A]	3.3	100	–
O=C1Nc2ccc([C@H](O)CN3C[C@H]4C[C@H](Oc5ccccc5F)C[C@@]4(O)C3)cc2CS1 (single isomer, unassigned) [Example 15B]	1.92	0.0019	–
O=C1Nc2ccc([C@H](O)CN3C[C@H]4C[C@H](Oc5ccccc5)C[C@@]4(O)C3)c(F)c2CO1 (single isomer, unassigned) [Example 34B]	3.47	1.1	–
O=C1Nc2ccc([C@@H](O)CN3C[C@H]4C[C@H](Oc5ccccc5F)C[C@@]4(O)C3)cc2CS1 (single isomer, unassigned) [Example 15A]	1.6	0.0015	–
O=C1Nc2ccc([C@H](O)CN3C[C@H]4C[C@H](Oc5ccccc5)C[C@@]4(O)C3)cc2CO1 (single isomer, unassigned) [Example 28B]	3.18	1.7	–
O=C1Nc2ccc([C@H](O)CN3C[C@H]4C[C@H](Oc5ccccc5F)C[C@@]4(O)C3)cc2CO1 (single isomer, unassigned) [Example 41B]	2.44	0.23	–
O=C1Nc2c(cc([C@@H](O)CN3C[C@H]4C[C@H](Oc5ccccc5)C[C@@]4(O)C3)c(F)c2F)CO1 (single isomer, unassigned) [Example 38A]	1.58	5.1	–
O=c1[nH]c2ccc([C@@H](O)CN3C[C@H]4C[C@H](Oc5ccccc5F)C[C@@]4(O)C3)cc2s1 (single isomer, unassigned) [Example 18A]	1.61	< 0.0021	–
